Laboratory results reported in ChEMBL document CHEMBL1201862, “PubChem BioAssay data set” (2004).
One block for each compound: values may come before it. The source made the active and inactive calls.

Key:
Leucine aminopeptidase = target: T1, Leucine aminopeptidase (Plasmodium falciparum 3D7, UniProt Q8IL11); test: P. falciparum M17LAP inhibitors, primary screen, biochemical, fluorogenic H-Leu-NHMec substrate, 1536-well (AID 1619); format: functional
T1 sequence (Q8IL11 whole entry): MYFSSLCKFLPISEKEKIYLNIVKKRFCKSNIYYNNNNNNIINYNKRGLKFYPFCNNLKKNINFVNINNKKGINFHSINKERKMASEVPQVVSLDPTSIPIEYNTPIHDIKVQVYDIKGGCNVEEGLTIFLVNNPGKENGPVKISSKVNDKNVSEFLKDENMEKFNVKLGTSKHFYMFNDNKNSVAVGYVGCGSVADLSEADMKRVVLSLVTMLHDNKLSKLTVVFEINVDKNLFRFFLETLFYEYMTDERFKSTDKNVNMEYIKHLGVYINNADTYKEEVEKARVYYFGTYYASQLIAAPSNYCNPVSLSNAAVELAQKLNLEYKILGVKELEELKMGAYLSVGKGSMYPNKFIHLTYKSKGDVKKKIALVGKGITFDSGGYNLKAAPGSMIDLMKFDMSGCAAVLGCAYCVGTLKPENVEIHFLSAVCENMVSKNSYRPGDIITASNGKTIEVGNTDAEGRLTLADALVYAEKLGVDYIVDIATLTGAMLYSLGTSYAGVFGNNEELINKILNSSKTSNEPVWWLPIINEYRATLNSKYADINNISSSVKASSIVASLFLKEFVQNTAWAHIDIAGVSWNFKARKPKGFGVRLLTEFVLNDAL

Aspartyl aminopeptidase = target: T2, Aspartyl aminopeptidase (Plasmodium falciparum 3D7, UniProt Q8I2J3); test: Counterscreen for inhibitors of M1 and M17 aminopeptidases: QFRET-based biochemical high throughput dose response assay for inhibitors of the Plasmodium falciparum M18 Aspartyl Aminopeptidase (PFM18AAP). [Related PubChem assays: 1619 (Screening assay (M17LAP inhibitors).), 1445 (Screening assay (M1AAP inhibitors).)]
T2 sequence (Q8I2J3 whole entry): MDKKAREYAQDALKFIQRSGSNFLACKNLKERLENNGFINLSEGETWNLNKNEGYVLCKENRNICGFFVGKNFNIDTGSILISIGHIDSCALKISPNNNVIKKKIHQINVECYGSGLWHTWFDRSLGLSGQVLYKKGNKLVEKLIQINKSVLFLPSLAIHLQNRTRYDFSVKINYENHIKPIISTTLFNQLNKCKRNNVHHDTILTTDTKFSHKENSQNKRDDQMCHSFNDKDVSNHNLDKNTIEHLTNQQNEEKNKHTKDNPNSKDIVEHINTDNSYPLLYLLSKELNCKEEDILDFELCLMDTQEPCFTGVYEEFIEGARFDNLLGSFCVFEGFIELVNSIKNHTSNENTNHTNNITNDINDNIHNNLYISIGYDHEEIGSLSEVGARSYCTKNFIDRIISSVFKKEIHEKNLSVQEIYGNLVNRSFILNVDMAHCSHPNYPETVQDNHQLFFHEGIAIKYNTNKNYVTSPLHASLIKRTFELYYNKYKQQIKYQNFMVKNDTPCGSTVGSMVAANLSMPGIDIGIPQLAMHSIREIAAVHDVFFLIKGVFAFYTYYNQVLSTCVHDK

Procathepsin L = Procathepsin L (Homo sapiens, UniProt P07711); test: CTSL1 protease inhibition – biochemical, QFRET, 1536-well, counter-screen for M1/M17 aminopeptidase inhibitor project, dose response (AID 2214)
Sequence of Procathepsin L (P07711 whole entry): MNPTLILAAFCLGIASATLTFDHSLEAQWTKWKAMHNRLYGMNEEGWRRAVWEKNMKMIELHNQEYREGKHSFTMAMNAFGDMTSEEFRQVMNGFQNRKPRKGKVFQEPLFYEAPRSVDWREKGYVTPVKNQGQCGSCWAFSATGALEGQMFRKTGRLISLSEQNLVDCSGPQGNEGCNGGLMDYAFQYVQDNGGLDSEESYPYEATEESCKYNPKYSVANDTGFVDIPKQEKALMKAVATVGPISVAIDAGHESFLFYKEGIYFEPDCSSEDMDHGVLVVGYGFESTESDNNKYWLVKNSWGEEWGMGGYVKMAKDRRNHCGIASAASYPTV

[1] = toxicity toward HepG2 liver cells – cell-based, plate reader, cherry-pick, antagonist series, cytotoxicity control, dose response (AID 743416); format: functional
[2] = target: Luciferin 4-monooxygenase (Photinus pyralis, UniProt P08659); test: inhibition of purified Photinus pyralis luciferase – biochemical, luminescence, dose response (AID 1891)
Sequence of Luciferin 4-monooxygenase (P08659 whole entry): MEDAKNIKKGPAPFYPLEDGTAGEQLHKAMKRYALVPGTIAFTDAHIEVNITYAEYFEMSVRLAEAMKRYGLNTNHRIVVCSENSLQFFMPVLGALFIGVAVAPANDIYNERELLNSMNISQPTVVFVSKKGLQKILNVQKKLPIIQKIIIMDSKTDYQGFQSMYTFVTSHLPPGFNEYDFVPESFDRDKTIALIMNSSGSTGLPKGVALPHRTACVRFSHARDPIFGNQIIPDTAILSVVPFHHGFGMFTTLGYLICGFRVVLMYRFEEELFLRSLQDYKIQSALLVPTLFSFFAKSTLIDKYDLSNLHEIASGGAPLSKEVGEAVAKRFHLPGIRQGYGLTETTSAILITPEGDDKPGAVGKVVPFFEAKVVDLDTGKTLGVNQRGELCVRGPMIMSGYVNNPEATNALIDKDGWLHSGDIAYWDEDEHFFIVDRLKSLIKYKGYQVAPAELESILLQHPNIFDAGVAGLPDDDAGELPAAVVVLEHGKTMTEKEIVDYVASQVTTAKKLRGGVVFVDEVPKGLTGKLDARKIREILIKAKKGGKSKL

[3] = Luminescence-based counterscreen assay for KLF5 inhibitors: dose response cell-based high throughput screening assay to identify cytotoxic compounds using the IEC-6 intestinal epithelial cell line. [Related pubchem assays: 1700 (Primary screen.), 1834 (Confirmation screen.), 1858 (Summary AID.), 1905 (Counterscreen.)]; format: functional
[4] = luciferase reporter signal suppression in cells – H4 neuroglioma cells, luminescence, dose response (AID 1990); format: functional, cell-based
BJ [5] = test: BJ-TERT-LT-ST fibroblast viability loss – cell-based, RAS-independent, luminescence, dose response (AID 1935); format: functional; conditions: Homo sapiens;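 further: BJ fibroblasts immortalized with TERT plus LT and ST oncogenes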
[6] = alpha-synuclein stem-loop luciferase translation blockers – H4 neuroglioma cells, luminescence, confirmation (AID 1988); format: functional, cell-based
BJ [7] = test: BJ-TERT fibroblast viability loss – cell-based, RAS-independent, luminescence, dose response (AID 1933); format: functional; conditions: Homo sapiens
BJ [8] = test: cells; format: functional, cell-based; conditions: Homo sapiens
[9] = blockers of bursicon-stimulated LGR2 cAMP reporter – cell-based, HEK293, CRE-luciferase reporter, cherry pick, set 2, dose response (AID 743343); format: functional;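 further: transfected cells were stimulated with diluted bursicon conditioned medium after compound addition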
[10] = A549 cell cytotoxicity, dose response, cytotoxicity control, plate reader, cherry-pick, antagonist series (AID 743412); format: functional, cell-based
[11] = blockade of melanocortin 4 receptor signaling – cell-based, plate reader, cherry pick, counter-screen for LGR2 antagonist project, dose response (AID 743444); format: functional;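 further: transfected HEK 293 cells stimulated with alpha-MSH peptide; potency of inhibitors of the alpha-MSH evoked signal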
[12] = DRD fibroblast viability loss – cell-based, non-viral oncogenic, luminescence, dose response (AID 1934); format: functional; conditions: Homo sapiens
[13] = Luminescence Cell-Based Dose Confirmation HTS to Identify Inhibitors of Platelet Dense Granule Release. [Related pubchem assays: 1663 (Primary HTS), 1678 (Summary of Project)]; format: functional
[14] = viability loss in HEK293 cells – cell-based, plate reader, cherry-picked samples, cytotoxicity control, dose response (AID 743446); format: functional
[15] = target: Peroxisome proliferator-activated receptor gamma/Nuclear receptor coactivator 3 (Homo sapiens, UniProt P37231); format: functional;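 further: agonist potency for raising coactivator recruitment to the receptor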
[16] = target: Peroxisome proliferator-activated receptor gamma/Nuclear receptor coactivator 2 (Homo sapiens, UniProt P37231); format: functional;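 further: agonist potency for raising coactivator recruitment to the receptor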
Sequence of Peroxisome proliferator-activated receptor gamma/Nuclear receptor coactivator 2 (P37231 whole entry): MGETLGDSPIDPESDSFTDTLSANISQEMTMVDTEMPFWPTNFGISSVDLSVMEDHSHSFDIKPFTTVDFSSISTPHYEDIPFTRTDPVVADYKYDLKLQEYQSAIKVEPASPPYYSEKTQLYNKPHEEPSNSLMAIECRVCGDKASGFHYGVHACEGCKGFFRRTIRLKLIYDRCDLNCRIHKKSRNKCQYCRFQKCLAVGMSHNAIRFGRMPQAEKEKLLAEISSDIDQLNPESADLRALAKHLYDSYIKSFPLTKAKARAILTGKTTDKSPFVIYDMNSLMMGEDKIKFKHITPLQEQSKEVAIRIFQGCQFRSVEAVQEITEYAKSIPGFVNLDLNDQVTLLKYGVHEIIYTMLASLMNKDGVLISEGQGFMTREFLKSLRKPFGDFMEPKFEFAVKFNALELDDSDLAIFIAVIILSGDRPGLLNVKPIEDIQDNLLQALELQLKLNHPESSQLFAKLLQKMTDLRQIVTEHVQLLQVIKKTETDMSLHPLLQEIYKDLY
Sequence of Peroxisome proliferator-activated receptor gamma/Nuclear receptor coactivator 2 (Q15596 whole entry, further chain): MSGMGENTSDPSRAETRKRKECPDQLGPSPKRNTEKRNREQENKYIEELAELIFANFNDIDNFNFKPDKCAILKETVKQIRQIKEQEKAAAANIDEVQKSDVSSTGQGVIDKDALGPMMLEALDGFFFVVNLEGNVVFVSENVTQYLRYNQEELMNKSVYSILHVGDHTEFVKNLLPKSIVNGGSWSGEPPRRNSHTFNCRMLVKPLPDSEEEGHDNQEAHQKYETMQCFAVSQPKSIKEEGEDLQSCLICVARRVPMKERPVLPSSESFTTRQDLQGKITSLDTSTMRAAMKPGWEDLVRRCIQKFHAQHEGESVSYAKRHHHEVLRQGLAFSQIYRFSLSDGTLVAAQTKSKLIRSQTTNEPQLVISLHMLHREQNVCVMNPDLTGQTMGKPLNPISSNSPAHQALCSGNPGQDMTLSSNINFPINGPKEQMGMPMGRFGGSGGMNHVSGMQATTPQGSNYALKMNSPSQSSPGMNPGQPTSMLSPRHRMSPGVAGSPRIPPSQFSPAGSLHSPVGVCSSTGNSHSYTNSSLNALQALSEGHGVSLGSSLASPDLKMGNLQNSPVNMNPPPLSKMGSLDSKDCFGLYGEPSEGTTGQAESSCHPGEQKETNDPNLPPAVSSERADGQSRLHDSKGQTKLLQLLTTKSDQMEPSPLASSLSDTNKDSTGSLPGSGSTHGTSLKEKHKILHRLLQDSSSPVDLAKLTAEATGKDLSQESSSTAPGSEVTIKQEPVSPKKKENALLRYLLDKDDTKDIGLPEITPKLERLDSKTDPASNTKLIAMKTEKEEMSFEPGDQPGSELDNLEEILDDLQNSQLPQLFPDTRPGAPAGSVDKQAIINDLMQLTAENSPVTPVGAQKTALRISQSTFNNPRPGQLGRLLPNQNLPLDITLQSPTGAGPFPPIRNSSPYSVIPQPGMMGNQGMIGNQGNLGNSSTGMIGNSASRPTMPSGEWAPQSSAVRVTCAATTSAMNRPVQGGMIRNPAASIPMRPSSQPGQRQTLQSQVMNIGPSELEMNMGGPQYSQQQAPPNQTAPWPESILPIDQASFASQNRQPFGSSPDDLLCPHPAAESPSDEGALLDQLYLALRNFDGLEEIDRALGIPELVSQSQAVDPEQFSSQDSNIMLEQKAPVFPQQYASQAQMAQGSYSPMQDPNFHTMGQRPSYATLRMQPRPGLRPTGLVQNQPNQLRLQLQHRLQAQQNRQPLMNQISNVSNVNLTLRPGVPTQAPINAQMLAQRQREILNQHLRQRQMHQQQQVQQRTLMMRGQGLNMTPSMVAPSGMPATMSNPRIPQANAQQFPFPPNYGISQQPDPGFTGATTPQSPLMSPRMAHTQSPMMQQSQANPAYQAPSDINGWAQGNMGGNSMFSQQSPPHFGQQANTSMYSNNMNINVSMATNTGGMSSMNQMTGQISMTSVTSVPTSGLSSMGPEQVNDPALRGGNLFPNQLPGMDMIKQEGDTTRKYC

[17] = target: Peroxisome proliferator-activated receptor gamma/Nuclear receptor coactivator 1 (Homo sapiens, UniProt P37231); format: functional;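 further: agonist potency as compounds enhance coactivator SRC-1 recruitment to PPARgamma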
Sequence of Peroxisome proliferator-activated receptor gamma/Nuclear receptor coactivator 1 (P37231 whole entry): as the sequence (P37231 whole entry) above
Sequence of Peroxisome proliferator-activated receptor gamma/Nuclear receptor coactivator 1 (Q15788 whole entry, further chain): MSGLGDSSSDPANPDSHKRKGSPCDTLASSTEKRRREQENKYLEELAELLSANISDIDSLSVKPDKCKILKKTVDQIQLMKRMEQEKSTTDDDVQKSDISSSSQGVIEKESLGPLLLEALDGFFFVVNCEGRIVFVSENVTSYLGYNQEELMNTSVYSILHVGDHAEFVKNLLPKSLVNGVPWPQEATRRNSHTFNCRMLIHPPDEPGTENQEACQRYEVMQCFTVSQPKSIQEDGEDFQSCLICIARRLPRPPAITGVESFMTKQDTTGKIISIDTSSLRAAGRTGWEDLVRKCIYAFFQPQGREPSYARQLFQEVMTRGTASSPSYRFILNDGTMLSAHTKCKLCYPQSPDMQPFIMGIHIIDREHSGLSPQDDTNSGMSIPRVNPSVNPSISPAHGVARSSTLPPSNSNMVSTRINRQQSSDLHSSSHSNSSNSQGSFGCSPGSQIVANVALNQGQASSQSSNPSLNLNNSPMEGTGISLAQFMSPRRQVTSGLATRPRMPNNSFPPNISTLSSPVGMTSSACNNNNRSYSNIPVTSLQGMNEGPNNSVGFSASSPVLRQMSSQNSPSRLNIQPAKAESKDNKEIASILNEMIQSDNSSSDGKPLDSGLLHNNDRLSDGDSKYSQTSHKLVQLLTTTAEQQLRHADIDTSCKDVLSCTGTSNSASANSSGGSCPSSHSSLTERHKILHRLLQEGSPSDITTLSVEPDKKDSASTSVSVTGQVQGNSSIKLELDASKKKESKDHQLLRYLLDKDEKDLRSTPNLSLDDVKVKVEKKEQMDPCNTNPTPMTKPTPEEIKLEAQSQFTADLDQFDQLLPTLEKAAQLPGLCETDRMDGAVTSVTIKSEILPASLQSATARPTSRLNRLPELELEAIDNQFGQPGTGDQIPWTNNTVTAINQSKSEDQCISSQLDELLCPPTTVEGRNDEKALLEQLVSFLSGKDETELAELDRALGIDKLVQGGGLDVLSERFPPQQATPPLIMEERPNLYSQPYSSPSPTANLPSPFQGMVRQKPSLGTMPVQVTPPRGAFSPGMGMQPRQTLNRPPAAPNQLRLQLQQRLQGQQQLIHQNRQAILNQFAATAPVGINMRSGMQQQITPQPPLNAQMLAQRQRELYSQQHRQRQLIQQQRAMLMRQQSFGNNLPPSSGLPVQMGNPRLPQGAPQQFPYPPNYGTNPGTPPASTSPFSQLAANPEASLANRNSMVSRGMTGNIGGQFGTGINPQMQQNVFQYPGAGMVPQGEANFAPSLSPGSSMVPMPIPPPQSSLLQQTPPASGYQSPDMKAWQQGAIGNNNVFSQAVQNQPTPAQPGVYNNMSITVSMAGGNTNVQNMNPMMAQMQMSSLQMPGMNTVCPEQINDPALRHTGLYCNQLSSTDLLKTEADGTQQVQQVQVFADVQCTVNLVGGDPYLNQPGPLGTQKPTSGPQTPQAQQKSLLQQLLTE

[18] = target: FAD-linked sulfhydryl oxidase ALR (Homo sapiens, UniProt P55789); test: ALR-catalysed DTT oxidation blockers – biochemical, H2O2 detection, luminescence, cherry-pick, dose response (AID 493248)
Sequence of FAD-linked sulfhydryl oxidase ALR (P55789 whole entry): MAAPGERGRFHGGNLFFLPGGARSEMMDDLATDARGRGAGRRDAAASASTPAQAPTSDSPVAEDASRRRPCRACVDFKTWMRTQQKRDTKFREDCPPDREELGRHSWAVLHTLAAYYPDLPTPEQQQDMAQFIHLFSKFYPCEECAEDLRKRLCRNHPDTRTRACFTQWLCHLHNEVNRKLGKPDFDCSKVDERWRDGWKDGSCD

[19] = target: Heat shock protein HSP 90-alpha (Homo sapiens, UniProt P07900); format: functional, organism-based
[20] = target: Induced myeloid leukemia cell differentiation protein Mcl-1 (Homo sapiens, UniProt Q07820); test: blockers of MCL1 binding to BIM peptide – biochemical, fluorescence polarization, BIM-BH3 peptide, 1536-well, dose response (AID 2217)
Bcl-2-like protein 1 = Bcl-2-like protein 1 (Homo sapiens, UniProt Q07817); test: blockers of BCLXL peptide binding – biochemical, fluorescence polarization, 1536-well, selectivity assay for MCL1 inhibitor project, dose response (AID 2218)

SMILES: CN(C)c1ccc(Nc2nc(N)c3ccccc3n2)cc1
AC50 [1]: 22.6 µM (active) | EC50 [2]: 1.37 µM (active) | IC50 [3]: 19.1 µM (not active) | EC50 [4]: > 60 µM (inconclusive) | EC50 (BJ [5]): > 150 µM (inconclusive) | EC50 [6]: 10.1 µM (inconclusive) | EC50 (BJ [7]): 10.6 µM (active) | EC50 (BJ [8]): 12.6 µM (active) | AC50 [9]: 1.57 µM (active) | AC50 [10]: 23.7 µM (active) | AC50 [11]: 1.89 µM (active) | EC50 [12]: 11.8 µM (active) | EC50 [13]: 234 nM (active) | AC50 [14]: 24.5 µM (active)

SMILES: CCc1nc(SCc2ccc(F)cc2)[nH]c(=O)c1C#N
EC50 [15]: > 79.4 µM (not active) | EC50 [16]: > 79.4 µM (not active) | EC50 [17]: > 79.4 µM (not active) | AC50 [18]: 622 nM (active)

SMILES: C/C(=N\Nc1nc2ccccc2s1)c1ccc(Br)s1
EC50 [15]: > 79.4 µM (not active) | EC50 [16]: > 79.4 µM (not active) | AC50 [19]: 3.85 µM (active) | EC50 [17]: > 79.4 µM (not active)

SMILES: Cc1cc[n+](-c2[n-]c(=O)sc2/C=N/NC(=O)CCn2c3ccccc3c3ccccc32)cc1
IC50 [20]: 14.1 µM (not active) | IC50 (Bcl-2-like protein 1): 27.6 µM (not active)

Results, then the compound that gave them:

IC50 (Leucine aminopeptidase): 1.94 µM (active) | IC50 (Aspartyl aminopeptidase): > 73.5 µM (not active) | IC50 (Procathepsin L): > 59.6 µM (not active)
SMILES: Cc1ccc(Nc2nnc(SC3CCOC3=O)s2)cc1 (stereo not given)

IC50 (Leucine aminopeptidase): < 1 µM (active) | IC50 (Aspartyl aminopeptidase): > 73.5 µM (not active) | IC50 (Procathepsin L): > 59.6 µM (not active)
SMILES: CCC1CCc2c(sc(NC(=O)C3CC=CCC3C(=O)O)c2C#N)C1 (stereo not given)
